This assay relates to CEM cells HIV-1 protection, formazan growth assay. As to the kind of experiment: NCI AIDS Antiviral Assay. Particulars: for IC50: measured here: growth of uninfected CEM cells. The procedure, abridged:
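Human CEM cells, uninfected and HIV-1-infected, exposed to five drug concentrations; growth measured by soluble formazan assay and scored as percent protection from infection, with protecting compounds retested.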

The structures appear in SMILES notation. Calls of active or inactive are those of the source.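 The calls were made as follows: active = compounds giving half or more protection of infected cells from virus-caused growth loss, again on retest; inactive = the rest.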 Where a SMILES comes first, the peptide text is derived from it. Bridges are numbered along the chain shown (N, C = ends). Roman numbers before positions name the chains, in order. The star is where a group is joined. Cbz = O=C(OCc1ccccc1)*

Turning to `C(/C=C\c1ccccc1)=NCCCCCCN=C/C=C/c1ccccc1`, the EC50 (commonly the concentration that produces a half-maximal response) was greater than 20 µM and the half-inhibitory concentration (IC50) – broadly, the concentration that inhibits the measured activity by half – turned out to be 12.3 µM.

As to `CCOc1ccc(NC(=O)CC2SC(N)=NC2=O)cc1` (stereo not drawn), the EC50 was greater than 447 µM and the IC50 was greater than 447 µM.

On to `O=C(O)C1=Cc2cccc3cccc(c23)C1=O`, for which the result was inactive.

Regarding `CCCCCC#CCOC(=O)C(=[N+]=[N-])P(=O)(c1ccccc1)c1ccccc1`, the EC50 was greater than 200 µM and the concentration for half-maximal inhibition (IC50) turned out to be 95.5 µM.

Regarding `Cc1cn(C(CO)OC(CO)CP(=O)(O)O)c(=O)[nH]c1=O` (stereo not drawn), the EC50 was greater than 200 µM and the concentration for half-maximal inhibition (IC50) is greater than 200 µM.

`C[C@@H]1c2ccc3c(c2C2(O)C[C@H]4CCC1N2C4)CC1[C@H]3C[C@@H](O)C2C[C@@H](O)CC[C@@]21C` (stereo partly drawn): the EC50 was greater than 30.9 µM and the concentration for half-maximal inhibition (IC50) is greater than 30.9 µM.

`CCOC(=O)NC(=O)c1cn(CCCOC(=O)NCCCCCCNC(=O)OCCCn2cc(C(=O)NC(=O)OCC)c(=O)[nH]c2=O)c(=O)[nH]c1=O`: the result was inactive.

Regarding `CC1=CC(=O)/C(=C/n2c(=S)[nH]c3cc(C)ccc32)C(=O)O1`, the EC50 was greater than 200 µM and the 50% inhibitory concentration (IC50) stood at 195 µM.

On to `CC(C(=O)O)c1ccc(-n2nnc3c(=O)[nH][nH]c(=O)c32)cc1` (stereo not drawn), for which the EC50 was greater than 200 µM and the IC50 was greater than 200 µM.

`Nc1cc(S(=O)(=O)O)c(O)c2c1C(=O)c1c(O)c(S(=O)(=O)O)cc(N)c1C2=O`: the outcome was inactive.

As for `CCSC(=O)C1(C)Cc2ccccc2O1` (stereo not drawn), the result was inactive.

Turning to `[N-]=[N+]=CC(=O)OC(CCl)CCl`, the EC50 was greater than 200 µM and the IC50 is greater than 200 µM.

For `CC1(c2cccc3c2C2(O)C=CC4(CCC32)OCCO4)OCCO1` (stereo not drawn), the EC50 is 123 µM and the concentration for half-maximal inhibition (IC50) stood at 174 µM.

With `CC(=O)NNc1nc(C)c(C(/C=C/c2cccc([N+](=O)[O-])c2)=N/NC(=S)NN)s1`, the EC50 is greater than 72.4 µM and the IC50 is greater than 72.4 µM.

`Cc1ccc(C2=Nc3ccccc3NC(=O)C2)cc1`: the EC50 is 20.4 µM and the half-maximal inhibitory concentration (IC50) was found to be 75.9 µM.

`NC1=NN(c2ccccc2)C2(c3ccncc3C(=O)O)C1C(N)=NN2c1ccccc1` (stereo not drawn): the EC50 is greater than 200 µM and the concentration for half-maximal inhibition (IC50) was greater than 200 µM.

On to `Cc1cccc(-c2nnc3s/c(=C\c4ccc(N(C)C)cc4)c(=O)n23)c1`, for which the EC50 is greater than 30.9 µM and the 50% inhibitory concentration (IC50) was greater than 30.9 µM.

As to `[CH2+][B-]1(C)n2ccc[n+]2[B-](C)(C)[n+]2cccn21`, the EC50 is greater than 200 µM and the IC50 was greater than 100 µM.

In the case of `N#CC(Nc1ccccc1)c1ccc(C(C#N)Nc2ccccc2)cc1` (stereo not drawn), the EC50 is greater than 200 µM and the half-inhibitory concentration (IC50) worked out at 9.55 µM.

Consider `CCC1CN2CCC3(C(=O)Nc4ccccc43)C2CC1/C(=C/OC)C(=O)OC` (stereo not drawn), for which the outcome was inactive.

Consider `Cc1ccc(C(=O)O)c(CC2Cc3c(C)cccc3C2=O)c1` (stereo not drawn), for which the EC50 is greater than 200 µM and the IC50 is 155 µM.

On to `CCOC(=O)c1cnc2c(cnn2CC)c1NN=C(C)C`, for which the EC50 was greater than 200 µM and the half-maximal inhibitory concentration (IC50) came out at 117 µM.

Regarding `COC(=O)CC1C(=O)OC23CCC1C2(C)CCC1C3CCC2CC(OC(C)=O)CCC21C` (stereo not drawn), the result was inactive.

Turning to `C/C(=N\NC(N)=O)c1sc(-c2nc(C)c(/C(C)=N/NC(N)=O)s2)nc1C`, the EC50 was greater than 9.55 µM and the half-maximal inhibitory concentration (IC50) is greater than 9.55 µM.

As to `CC(C)N1CC2CC(CN(C(=O)c3ccccc3)C2)C1`, the EC50 was greater than 676 µM and the IC50 was greater than 676 µM.

With `NS(=O)(=O)c1ccc(NCc2cccc3c(=O)c4ccc(Cl)cc4oc23)cc1`, the EC50 is greater than 100 µM and the IC50 is 4.07 µM.

In the case of `CC(=O)Oc1cccc2c1[nH]c(=O)c1c(OC(C)=O)c3c(cc12)OCO3`, the result was inactive.

Turning to `COc1ccc(N)c(N2C(=O)c3ccccc3C2=O)c1`, the EC50 was greater than 200 µM and the IC50 was greater than 200 µM.

Turning to `Cc1ccc(S(=O)(=O)N2CCSCCN(S(=O)(=O)c3ccc(C)cc3)CCN(S(=O)(=O)c3ccc(C)cc3)CC2)cc1`, the EC50 is greater than 4.17 µM and the IC50 was greater than 4.17 µM.

For the molecule `CCCCCCCCOCC(COC(=O)CCCCCCC)OC(=O)CCCCCCC` (stereo not drawn), the EC50 was greater than 151 µM and the IC50 was 37.2 µM.

Take `BrC1=CC2C(C3C=CC2(Br)C32OCCO2)C12OCCO2` (stereo not drawn): the EC50 is greater than 166 µM and the half-maximal inhibitory concentration (IC50) is greater than 166 µM.

For `[N-]=[N+]=NCc1cccc(Nc2cc(=O)[nH]c(=O)[nH]2)c1`, the 50% effective concentration (EC50) is 49 µM and the IC50 is greater than 200 µM.

As to `C#C[C@H]1CCCCCC1O` (stereo partly drawn), the EC50 is greater than 1820 µM and the concentration for half-maximal inhibition (IC50) came to 1230 µM.

Regarding `CN(C)COC(=S)SC(=O)OCCCl`, the EC50 is greater than 200 µM and the IC50 is greater than 200 µM.

`CC1(C)[C@@H]2C[C@H]1C(Cc1ccccc1C[C@H]1c3cc(-c4ccccn4)ncc3[C@H]3C[C@@H]1C3(C)C)c1cc(-c3ccccn3)ncc12` (stereo partly drawn): the EC50 was greater than 200 µM and the IC50 was found to be 0.316 µM.

As to `CCOC(=O)NC(=S)NC(C)c1ccccc1` (stereo not drawn), the EC50 was greater than 200 µM and the IC50 worked out at 115 µM.

For `CC(C)(C)OC(=O)NCCCCC(NC(=O)OCc1ccccc1)C(N)=O` (stereo not drawn), the EC50 was greater than 200 µM and the IC50 was greater than 200 µM.

`Cc1ccn2c(c1)nc1nc3ccccc3nc12`: the EC50 was greater than 214 µM and the half-inhibitory concentration (IC50) was determined as 110 µM.

`CC(CC[C@@H](C)C1CCC2[C@@H]3CC(O)C4CC(O)[C@@H](O)C[C@]4(C)C3CC[C@@]21C)C(C)(C)C` (stereo partly drawn): the result was inactive.

As for `CN1C2CCC1CC1(C2)SCCS1`, the result was inactive.

On to `O=c1[nH]c2ncsc2c(=O)n1O`, for which the EC50 was greater than 200 µM and the IC50 was determined as 5.01 µM.

With `CCCCNCC(=O)O[C@]1(CC)C(=O)OCc2c1cc1n(c2=O)Cc2cc3ccccc3nc2-1`, the EC50 was greater than 10 µM and the IC50 was 0.0776 µM.

As to `O=C(O)/C(Cl)=C(\Cl)C(=O)NC1C2CC3CC(C2)CC1C3` (stereo not drawn), the result was inactive.

Turning to `CCN1CCC(O)(/C=C/c2ccccc2)C(C(=O)/C=C/c2ccccc2)C1` (stereo not drawn), the outcome was inactive.

For the molecule `Nc1ccccc1N1C(=O)C(Cl)=C(Cl)C1=O`, the outcome was inactive.

Regarding `CCCC(=O)OCC1=CCC2c3c(c4ccccc4n3C)CC1N2Cc1ccccc1` (stereo not drawn), the EC50 is greater than 21.4 µM and the IC50 was 3.8 µM.

On to `O=C(O)c1cccc(C(=O)c2ccccc2)c1`, for which the EC50 is greater than 200 µM and the IC50 is greater than 200 µM.

Turning to `O=C(C=P(c1ccccc1)(c1ccccc1)c1ccccc1)c1ccccc1-c1ccccc1C(=O)C=P(c1ccccc1)(c1ccccc1)c1ccccc1`, the EC50 was greater than 1 µM and the 50% inhibitory concentration (IC50) is 0.107 µM.

On to `O=C1NC(=O)C2C(=O)NC(=O)C1C2(c1ccccc1)c1ccc(Cl)cc1` (stereo not drawn), for which the EC50 was greater than 676 µM and the concentration for half-maximal inhibition (IC50) was found to be 468 µM.

For `CC(=O)O[C@H]1CN(S(=O)(=O)c2ccc(C)cc2)C[C@@H]1C1CCCCC1`, the EC50 is greater than 200 µM and the IC50 was 28.8 µM.

As for `Cc1ccc2c(c1)Nc1ccccc1P2(=O)O`, the EC50 was greater than 200 µM and the half-maximal inhibitory concentration (IC50) is greater than 200 µM.

As for `O=C(c1ccccc1)N1C(=S)N(c2ccc([N+](=O)[O-])cc2)C(=Nc2ccccc2)C1=Nc1ccccc1`, the EC50 was greater than 200 µM and the IC50 came to 1 µM.

Take `O=C1NC2OC(CO)C(O)C2O1` (stereo not drawn): the EC50 was greater than 200 µM and the IC50 is greater than 200 µM.

As for `CN(C)CCN=C1Nc2ccccc2C(=S)N2CSCC12` (stereo not drawn), the EC50 is greater than 200 µM and the IC50 was greater than 200 µM.

For the molecule `CCOC(=O)CCC(NC(=O)C(CC(=O)OC)NC(=O)C(CC(=O)OC)NC(=O)C(CC(=O)OC)NC(=O)C(CC(=O)OC)NC(=O)OCc1ccccc1)C(=O)NC(CCC(=O)OCC)C(=O)NC(CCC(=O)OCC)C(=O)OCC` (stereo not drawn) (Cbz-D(OMe)D(OMe)D(OMe)D(OMe)E(OEt)E(OEt)E(OEt)-OEt; configuration not given here), the EC50 is greater than 50.1 µM and the IC50 is greater than 50.1 µM.

With `c1cn[nH]c1`, the EC50 was greater than 3630 µM and the concentration for half-maximal inhibition (IC50) was determined as 1780 µM.

`CCOC(=O)c1[nH]cc(C)c1-c1c[nH]c2ccccc12`: the EC50 is greater than 200 µM and the concentration for half-maximal inhibition (IC50) is 24.5 µM.

As for `CC(=O)NC1C(O[C@H]2CC[C@@]3(C)C(CC[C@]4(C)C3CC=C3C5CC(C)(C)CC[C@]5(C(=O)O)CCC34C)C2(C)C)OC(CO)C(O)C1O` (stereo partly drawn), the EC50 was greater than 200 µM and the half-inhibitory concentration (IC50) was determined as 9.12 µM.

With `Cc1c(C(=O)NCCO)[n+](=O)c2cc(Cl)ccc2n1[O-]`, the EC50 was greater than 832 µM and the IC50 stood at 56.2 µM.

Take `CC(OC(C)(C)C)C(NC(=O)C(Cc1ccccc1)NC(=O)C(NC(=O)C(CCCCNC(=O)OC(C)(C)C)NC(=O)C(Cc1c[nH]c2ccccc12)C(=O)NC(Cc1ccccc1)NC(=O)C(Cc1ccccc1)NC(=O)C(CC(N)=O)NC(=O)C(N)CCCCNC(=O)OC(C)(C)C)C(C)OC(C)(C)C)C(=O)NC(COC(C)(C)C)C(=O)NC(CSC(C)(C)C)C(=O)OC(C)(C)C` (stereo not drawn): the EC50 was 87.1 µM and the 50% inhibitory concentration (IC50) is greater than 200 µM.

Take `CC(C)C(NC(=O)C(CSSCC(NC(=O)OCc1ccccc1)C(=O)NC(C(=O)O)C(C)C)NC(=O)OCc1ccccc1)C(=O)O` (stereo not drawn) (I: Cbz-Cys-Val-OH / II: Cbz-Cys-Val-OH; disulfide I:1-II:1; configuration not given here): the EC50 is greater than 200 µM and the IC50 came to 112 µM.

Regarding `S=P1(c2ccccc2)Nc2ccc(Cl)cc2N1` (stereo not drawn), the EC50 was greater than 468 µM and the 50% inhibitory concentration (IC50) is 9.12 µM.

For `COc1cc2[nH]ncc(=S)c2cc1OC`, the EC50 is 61.7 µM and the half-maximal inhibitory concentration (IC50) was 219 µM.

Take `CC(O)CS(=O)(=O)O` (stereo not drawn): the EC50 is greater than 200 µM and the IC50 is greater than 200 µM.

As for `S=C(SSSC(=S)N(C1CCCCC1)C1CCCCC1)N(C1CCCCC1)C1CCCCC1`, the outcome was inactive.

As to `Cc1ccc(S(=O)(=O)Nc2cccc3c(=O)[nH]cnc23)cc1`, the EC50 was greater than 83.2 µM and the IC50 is 13.8 µM.

`O=C(CCCC[n+]1ccccc1)Sc1ccccc1C(=O)Nc1ccc(S(=O)(=O)NC(=O)c2ccccc2)cc1`: the EC50 is 18.2 µM and the IC50 stood at 61.7 µM.

Take `CC1(C)CC(=O)C(CC2C(=O)CC(C)(C)CC2=O)C(=O)C1`: the EC50 was greater than 200 µM and the IC50 was greater than 200 µM.

Values taken from PubChem BioAssay AID179 (DTP/NCI, 2004).
